Test results published in the SangsterLogP compilation.

Columns and labels:
[1] = method code SF-AS, from DOI: 10.1007/s11095-005-4582-3, PMID: 15948031

CCc1c(C=O)ssc1=S
logP [1]: 3.15

CCc1c(C(C)=O)ssc1=S
logP: 3.21

CCc1c(C=O)ssc1=O
logP [1]: 2.58

O=Cc1cc(=O)ss1
logP: 1.81

CC(=O)c1ssc(=S)c1-c1ccccc1
logP: 3.31

O=Cc1ssc(=S)c1Cl
logP [1]: 2.95

CC(=O)c1ssc(=O)c1C
logP: 1.58

Cc1c(C=O)ssc1=O
logP [1]: 1.62

CC(=O)c1cc(=O)ss1
logP: 1.14

CC(=O)c1cc(=S)ss1
logP: 2.18

O=Cc1ssc(=S)c1-c1ccccc1
logP [1]: 3.43

Cc1c(C=O)ssc1=S
logP: 2.87

COc1c(C=O)ssc1=O
logP: 1.83

CC(=O)c1ssc(=O)c1-c1ccccc1
logP: 2.5

O=Cc1cc(=S)ss1
logP: 2.53

O=Cc1ssc(=O)c1-c1ccccc1
logP: 2.94

COc1c(C=O)ssc1=S
logP [1]: 2.56

O=Cc1ssc(=O)c1Cl
logP [1]: 2.16

CCc1c(C(C)=O)ssc1=O
logP: 2.12
